From patent publication US20050209278A1, “Piperidinyl- and piperazinyl-sulfonylmethyl hydroxamic acids and their use as protease inhibitors” (priority 2002, published 2005)
“And” between values parts separate entries of the source, which are not always exact repeats. Identical values can stand only once.

Legend:
MMP-9 = biological target: T1, MMP-9 (Homo sapiens, UniProt P14780); assay: In vitro MMP inhibition, Ki determination (fluorogenic substrate II); format: biochemical; settings: value outside parentheses
T1 construct: made in house; host or cells: MMP-9-transfected HT1080 cells (spent media)
Procedure, shortened: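 HT1080-derived MMP-9, activated with APMA, trypsin or MMP-3, incubated 1 hr at room temperature with inhibitor and 4 μM fluorogenic substrate II (at or below Km) in pH 7.5 Tris/NaCl/CaCl2 buffer; ex 330/em 420 nm. Ki from Morrison-equation regression, without substrate correction.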

MMP-14 = biological target: T2, MMP-14 (Homo sapiens, UniProt P50281); assay: as above; format: biochemical; settings: value outside parentheses; read-out: MMP-14 Ki
T2 construct: The catalytic domain enzyme was expressed in E. coli inclusion bodies, solubilized in urea; made in house
Procedure, shortened: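 Apparent Ki was fitted with Morrison's equation from reaction rates at a single low enzyme level. Enzyme was APMA- or trypsin-activated refolded MMP-14 catalytic domain, buffered at pH 7.5 with 10 mM CaCl2.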

T1 sequence (P14780 107-707 limits assumed): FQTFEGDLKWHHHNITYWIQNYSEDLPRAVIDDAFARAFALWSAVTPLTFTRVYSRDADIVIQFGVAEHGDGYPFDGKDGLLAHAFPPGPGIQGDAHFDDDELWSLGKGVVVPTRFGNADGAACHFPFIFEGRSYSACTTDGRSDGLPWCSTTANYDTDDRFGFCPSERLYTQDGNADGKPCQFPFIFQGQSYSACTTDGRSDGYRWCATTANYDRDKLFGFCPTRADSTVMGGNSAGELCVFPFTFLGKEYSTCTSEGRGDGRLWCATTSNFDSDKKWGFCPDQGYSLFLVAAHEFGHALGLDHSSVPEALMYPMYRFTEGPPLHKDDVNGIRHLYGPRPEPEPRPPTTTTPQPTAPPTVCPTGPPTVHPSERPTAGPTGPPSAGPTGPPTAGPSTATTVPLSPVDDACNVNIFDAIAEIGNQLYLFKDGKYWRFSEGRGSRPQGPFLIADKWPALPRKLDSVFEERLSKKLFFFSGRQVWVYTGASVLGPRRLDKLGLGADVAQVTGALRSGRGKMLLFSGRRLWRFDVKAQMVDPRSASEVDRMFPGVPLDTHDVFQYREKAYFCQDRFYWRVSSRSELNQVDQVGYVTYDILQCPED

Ki (MMP-9) | Ki (MMP-14) | Structure (SMILES)
29.2 nM | > 10000 nM | O=C(NO)C1(S(=O)(=O)N2CCC(c3ccc(OC(F)(F)C(F)(F)F)cc3)CC2)CCOCC1 [Example 349]
1.7 nM | 13.5 nM | O=C(NO)C1(S(=O)(=O)N2CCN(c3ccc(Br)cn3)CC2)CCOCC1 [Example 331]
1.34 nM | 3170 nM | O=C(NO)C1(S(=O)(=O)N2CCN(c3ccc(CCCC(F)(F)F)c(F)c3)CC2)CCOCC1 [Example 389]
0.384 nM | 9290 nM | O=C(NO)C1(S(=O)(=O)N2CCN(c3ccc(CCC(F)(F)C(F)(F)F)cc3)CC2)CCN(C2CC2)CC1 [Example 335]
0.431 nM | 4740 nM | O=C(NO)C1(S(=O)(=O)N2CCC(c3ccc(CCCC(F)(F)F)cc3)CC2)CCN(C2CC2)CC1 [Example 351]
105 nM | 2860 nM | O=C(NO)C1(S(=O)(=O)N2CCC(COCC(F)(F)C(F)F)CC2)CCOCC1 [Example 375]
2.33 nM | 1290 nM | O=C(NO)C1(S(=O)(=O)N2CCC(c3ccc(-c4ccccc4)cn3)CC2)CCOCC1 [Example 392]
114 nM | 3120 nM | O=C(NO)C1(S(=O)(=O)N2CCC(COCC(F)(F)C(F)(F)F)CC2)CCOCC1 [Example 376]
0.222 nM | 1300 nM | O=C(NO)C1(S(=O)(=O)N2CCC(c3ccc(CCC(F)(F)C(F)(F)F)cn3)CC2)CCOCC1 [Example 340]
1.52 nM | 931 nM | O=C(NO)C1(S(=O)(=O)N2CCC(c3ccc(-c4cccs4)cn3)CC2)CCOCC1 [Example 394]
0.39 nM | 7650 nM | CCCCc1ccc(C2CCN(S(=O)(=O)C3(C(=O)NO)CCN(CC)CC3)CC2)nc1 [Example 396]
> 10000 nM | > 10000 nM | O=C(NO)C1(S(=O)(=O)N2CCN(c3cnn(CCCC(F)(F)F)c(=O)c3)CC2)CCOCC1 [Example 321]
0.718 nM | 2290 nM | O=C(NO)C1(S(=O)(=O)N2CCC(c3ccc(OCC(F)(F)F)cc3)CC2)CCOCC1 [Example 357]
1.33 nM | 3930 nM | O=C(NO)C1(S(=O)(=O)N2CCN(c3ccc(CCCC(F)(F)F)cc3)CC2)CCOCC1 [Example 320]
0.86 nM | 2950 nM | O=C(NO)C1(S(=O)(=O)N2CCN(c3ccc(CCCC(F)(F)F)cn3)CC2)CCOCC1 [Example 358]
0.625 nM | 3290 nM | O=C(NO)C1(S(=O)(=O)N2CCC(c3ccc(CCC(F)(F)F)cn3)CC2)CCOCC1 [Example 367]
0.546 nM | 2710 nM | O=C(NO)C1(S(=O)(=O)N2CCC(c3ccc(CCCC(F)(F)F)cc3)CC2)CCOCC1 [Example 353]
0.738 nM | 1330 nM | O=C(NO)C1(S(=O)(=O)N2CCC(c3ccc(CCCC(F)(F)F)cn3)CC2)CCOCC1 [Example 338]
– | 1290 nM | CCCCc1ccc(C2CCN(S(=O)(=O)C3(C(=O)NO)CCOCC3)CC2)nc1 [Example 323]

Further lines, the compound ahead of its results:

Structure (SMILES) | Ki (MMP-9) | Ki (MMP-14)
O=C(NO)C1(S(=O)(=O)N2CCN(c3ncc(-c4ccc5c(c4)OCO5)s3)CC2)CCOCC1 [Example 362] | 1.37 nM | 150 nM
O=C(NO)C1(S(=O)(=O)N2CCN(c3ccc(-c4ccccc4F)cn3)CC2)CCOCC1 [Example 317] | 2.18 nM | 653 nM
O=C(NO)C1(S(=O)(=O)N2CCN(c3ncc(-c4ccc(Cl)cc4)s3)CC2)CCOCC1 [Example 343] | 0.489 nM | 34.9 nM
O=C(O)c1ccc(N2CCN(S(=O)(=O)C3(C(=O)NO)CCOCC3)CC2)cc1 [Example 352] | 6610 nM | > 10000 nM
CCCCc1ccc(-c2cnc(N3CCN(S(=O)(=O)C4(C(=O)NO)CCOCC4)CC3)s2)cc1 [Example 379] | 3.97 nM | 283 nM
COCCN1CCC(C(=O)NO)(S(=O)(=O)N2CCN(c3ncccn3)CC2)CC1 [Example 332] | 260 nM | > 10000 nM
CCc1ccc(C2CCN(S(=O)(=O)C3(C(=O)NO)CCN(CCOC)CC3)CC2)s1 [Example 314] | 22 nM | 1310 nM
O=C(NO)C1(S(=O)(=O)N2CCN(c3ncc(-c4ccc(O)cc4)s3)CC2)CCOCC1 [Example 368] | 0.423 nM | 180 nM
O=C(NO)C1(S(=O)(=O)N2CCC(COCC(F)(F)C(F)(F)C(F)(F)C(F)F)CC2)CCOCC1 [Example 378] | 219 nM | > 10000 nM
CCCCc1cnc(N2CCN(S(=O)(=O)C3(C(=O)NO)CCN(CCOC)CC3)CC2)nc1 [Example 334] | 1.19 nM | 5770 nM
Cc1ccc(-c2cnc(N3CCN(S(=O)(=O)C4(C(=O)NO)CCOCC4)CC3)s2)cc1 [Example 344] | 0.492 nM | 75 nM
CCN1CCC(C(=O)NO)(S(=O)(=O)N2CCN(c3ccc(-c4ccccc4)c(F)c3)CC2)CC1 [Example 341] | 3.77 nM | 4300 nM
O=C(NO)C1(S(=O)(=O)N2CCN(c3ccc(OCCCC(F)(F)F)cc3)CC2)CC(O)C1 (stereo not shown) [Example 342] | 108 nM | > 10000 nM
O=C(NO)C1(S(=O)(=O)N2CCN(c3ccc(-c4ccccc4)cn3)CC2)CCOCC1 [Example 372] | 0.665 nM and 0.75 nM | 462 nM and 470 nM
CCc1ccc(-c2cnc(N3CCN(S(=O)(=O)C4(C(=O)NO)CCOCC4)CC3)s2)cc1 [Example 381] | 1.03 nM | 54.1 nM
O=C(NO)C1(S(=O)(=O)N2CCN(c3ncc(/C=C/c4ccccc4)s3)CC2)CCOCC1 [Example 361] | 36.1 nM and 32.9 nM | 497 nM and 460 nM
O=C(NO)C1(S(=O)(=O)N2CCN(c3ncc(-c4cccnc4)s3)CC2)CCOCC1 [Example 382] | 4.26 nM | 778 nM
COc1ccccc1-c1ccc(N2CCN(S(=O)(=O)C3(C(=O)NO)CCOCC3)CC2)nc1 [Example 318] | 1380 nM | 1490 nM
O=C(NO)C1(S(=O)(=O)N2CCN(c3ncc(-c4ccc([N+](=O)[O-])cc4)s3)CC2)CCOCC1 [Example 363] | 1.74 nM | 27.8 nM
O=C(NO)C1(S(=O)(=O)N2CCN(c3cnn(-c4ccccc4)c(=O)c3Cl)CC2)CCOCC1 [Example 329] | > 10000 nM | > 10000 nM
NC(=O)c1ccccc1-c1cnc(N2CCN(S(=O)(=O)C3(C(=O)NO)CCOCC3)CC2)s1 [Example 383] | 9520 nM | > 10000 nM

Structure (SMILES) | Ki (MMP-9) | Ki (MMP-14)
CCCCOc1ccc(N2CCN(S(=O)(=O)C3(C(=O)NO)CCN(CCOC)CC3)CC2)nc1 [Example 325] | 0.32 nM | 912 nM
COc1ccc(-c2cnc(N3CCN(S(=O)(=O)C4(C(=O)NO)CCOCC4)CC3)s2)cc1OC [Example 371] | 6.5 nM | 1590 nM
O=C(NO)C1(S(=O)(=O)N2CCN(c3ncc(-c4ccccn4)s3)CC2)CCOCC1 [Example 387] | 34.6 nM | 4550 nM
O=C(NO)C1(S(=O)(=O)N2CCN(c3ncc(-c4cccc(-c5ccccc5)c4)s3)CC2)CCOCC1 [Example 365] | 1240 nM | > 10000 nM
O=C(NO)C1(S(=O)(=O)N2CCN(c3ccc(-c4ccc(Cl)c(Cl)c4)cc3)CC2)CCOCC1 [Example 328] | 95.7 nM | 2690 nM
O=C(NO)C1(S(=O)(=O)N2CCC(c3ccc(OCC(F)(F)C(F)F)cc3)CC2)CCN(C2CC2)CC1 [Example 350] | 1.21 nM | 4470 nM
CCC=C1CCN(S(=O)(=O)C2(C(=O)NO)CCOCC2)CC1 [Example 374] | 219 nM | 195 nM
O=C(NO)C1(S(=O)(=O)N2CCC(c3ccc(OCC(F)(F)C(F)F)cc3)CC2)CCN(CCN2CCOCC2)CC1 [Example 385] | 0.829 nM | 2930 nM
O=C(NO)C1(S(=O)(=O)N2CCN(c3ncc(-c4ccc(Cl)c(Cl)c4)s3)CC2)CCOCC1 [Example 369] | 22.7 nM | 343 nM
CCCCCc1cccc(N2CCN(S(=O)(=O)C3(C(=O)NO)CCOCC3)CC2)c1 [Example 356] | 184 nM | 3420 nM
O=C(NO)C1(S(=O)(=O)N2CCN(c3cnn(-c4ccccc4)c(=O)c3)CC2)CCOCC1 [Example 322] | > 10000 nM | > 10000 nM
O=C(NO)C1(S(=O)(=O)N2CCN(c3ncc(-c4ccc(-c5ccccc5)cc4)s3)CC2)CCOCC1 [Example 360] | 6.28 nM | 216 nM
O=C(NO)C1(S(=O)(=O)N2CCN(c3ccc(OCC4CC4)c(F)c3)CC2)CCOCC1 [Example 333] | 1.05 nM | 2360 nM
N#Cc1cccc(-c2cnc(N3CCN(S(=O)(=O)C4(C(=O)NO)CCOCC4)CC3)s2)c1 [Example 384] | 6.4 nM | 867 nM
O=C(NO)C1(S(=O)(=O)N2CCN(c3ccc(OCC(F)(F)C(F)F)cc3)CC2)CCOCC1 [Example 336] | 1.38 nM | 2520 nM
O=C(NO)C1(S(=O)(=O)N2CCN(c3ncc(-c4ccc(F)cc4)s3)CC2)CCOCC1 [Example 345] | 0.416 nM | 38.1 nM
CC(C)(C)c1ccc(-c2cnc(N3CCN(S(=O)(=O)C4(C(=O)NO)CCOCC4)CC3)s2)cc1 [Example 347] | 6.38 nM | 84.6 nM
O=C(NO)C1(S(=O)(=O)N2CCN(c3ccc(OCC(F)(F)C(F)F)cc3)CC2)CCOCC1 [Example 326] | 2.03 nM | 2430 nM
Cc1cccc(-c2cnc(N3CCN(S(=O)(=O)C4(C(=O)NO)CCOCC4)CC3)s2)c1 [Example 370] | 9.1 nM | 341 nM
O=C(NO)C1(S(=O)(=O)N2CCN(c3ncc(-c4ccc(C(F)(F)F)cc4)s3)CC2)CCOCC1 [Example 346] | 2.05 nM | 114 nM
O=C(NO)C1(S(=O)(=O)N2CCN(c3ccc(-c4ccc(OC(F)(F)F)cc4)cc3)CC2)CCOCC1 [Example 327] | 35.6 nM | 1370 nM
